Data taken from ChEMBL document CHEMBL1201862, “PubChem BioAssay data set” (2004).
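Following 48 hours of exposure in 96-well plates, responses at five concentrations were used to interpolate endpoints linearly. GI50 is the concentration that inhibits growth by half.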 The source made the active and inactive calls. No stated cut-off is given here; in the data, active = GI50 up to about 1.1 µM and inactive = higher.

Tests used:
Test in all cases: NCI-60 cell line screen, 48 h
K562 = tested on: K562
TK-10 = tested on: TK-10
CAKI-1 = tested on: CAKI-1
UO-31 = tested on: UO-31
UACC-257 = tested on: UACC-257
A498 = tested on: A498
LOX IMVI = tested on: LOX IMVI
U-251 = tested on: U-251
A549 = tested on: A549
OVCAR-8 = tested on: OVCAR-8
CCRF-CEM = tested on: CCRF-CEM
IGROV-1 = tested on: IGROV-1
SF-539 = tested on: SF-539
UACC-62 = tested on: UACC-62
SK-OV-3 = tested on: SK-OV-3
HL-60 = tested on: HL-60
MOLT-4 = tested on: MOLT-4

Measured: GI50

O=C1CC(CC(=O)C2CCCCC2=O)C(=O)N1 (stereo unspecified)
inactive: K562 > 100 µM | TK-10 > 100 µM | CAKI-1 > 100 µM | UO-31 > 100 µM | UACC-257 > 100 µM | A498 > 100 µM | LOX IMVI > 100 µM | U-251 > 100 µM | A549 > 100 µM | OVCAR-8 > 100 µM | CCRF-CEM > 100 µM | IGROV-1 > 100 µM | SF-539 > 100 µM | UACC-62 > 100 µM | SK-OV-3 > 100 µM | HL-60 > 100 µM

CC1=C(/C=C/C2=CC(=C\C(=O)O)/CC(C3=C(C)CCCC3(C)C)C2)C(C)(C)CCC1 (stereo unspecified)
inactive: TK-10 13.5 µM | CAKI-1 15.9 µM | UO-31 10.7 µM | UACC-257 15.6 µM | A498 15.2 µM | MOLT-4 3.01 µM | LOX IMVI 13.7 µM | U-251 11.1 µM | A549 4.8 µM | OVCAR-8 14.7 µM | IGROV-1 13.2 µM | SF-539 16.8 µM | UACC-62 10.9 µM | SK-OV-3 13.7 µM

Oc1ccncc1-c1cnccc1O
inactive: K562 > 100 µM | TK-10 > 100 µM | CAKI-1 > 100 µM | UO-31 > 100 µM | UACC-257 > 100 µM | A498 > 100 µM | MOLT-4 > 100 µM | LOX IMVI > 100 µM | U-251 > 100 µM | A549 > 100 µM | OVCAR-8 > 100 µM | CCRF-CEM > 100 µM | IGROV-1 > 100 µM | SF-539 > 100 µM | UACC-62 > 100 µM | SK-OV-3 > 100 µM | HL-60 > 100 µM

CC(=O)O[C@]12CCCCC1C1(O)C(O)CCCCC12 (stereo partly specified)
inactive: K562 > 100 µM | TK-10 > 100 µM | UO-31 > 100 µM | UACC-257 > 100 µM | MOLT-4 > 100 µM | LOX IMVI > 100 µM | U-251 > 100 µM | A549 > 100 µM | OVCAR-8 > 100 µM | CCRF-CEM > 100 µM | UACC-62 > 100 µM | SK-OV-3 > 100 µM | HL-60 > 100 µM

C=C(COC(C)=O)CC(OC(C)=O)c1ccccc1 (stereo unspecified)
inactive: K562 > 100 µM | TK-10 > 100 µM | UO-31 > 100 µM | A498 > 100 µM | MOLT-4 52.2 µM | LOX IMVI > 100 µM | U-251 > 100 µM | A549 > 100 µM | OVCAR-8 > 100 µM | CCRF-CEM 68.4 µM | IGROV-1 > 100 µM | SF-539 > 100 µM | UACC-62 > 100 µM | SK-OV-3 > 100 µM | HL-60 > 100 µM

COc1cc(C2C(Cl)C(=O)N2n2cnc3ccccc3c2=O)ccc1O (stereo unspecified)
inactive: TK-10 > 100 µM | CAKI-1 70.6 µM | UO-31 56.4 µM | UACC-257 25.4 µM | MOLT-4 > 100 µM | LOX IMVI > 100 µM | U-251 73.1 µM | A549 > 100 µM | OVCAR-8 > 100 µM | CCRF-CEM 80 µM | IGROV-1 78.2 µM | UACC-62 60.8 µM | SK-OV-3 68.9 µM | HL-60 > 10 µM

COc1cc(C2C3=C(CCCC3=O)N(c3ccc(C)cc3)C3=C2C(=O)CCC3)c([N+](=O)[O-])cc1OC
inactive: K562 79.3 µM | TK-10 > 100 µM | CAKI-1 > 100 µM | UO-31 > 100 µM | A498 > 100 µM | MOLT-4 24.2 µM | LOX IMVI 83.6 µM | U-251 42 µM | A549 54.5 µM | CCRF-CEM 40.7 µM | IGROV-1 > 100 µM | SF-539 61.1 µM | UACC-62 90.4 µM | SK-OV-3 > 100 µM | HL-60 45.4 µM

O=C1NC2(CCCC2)C2CCCCC12O (stereo unspecified)
inactive: K562 > 100 µM | TK-10 > 100 µM | CAKI-1 > 100 µM | UO-31 > 100 µM | UACC-257 > 100 µM | A498 > 100 µM | MOLT-4 > 100 µM | LOX IMVI > 100 µM | U-251 > 100 µM | A549 > 100 µM | OVCAR-8 > 100 µM | CCRF-CEM > 100 µM | IGROV-1 > 100 µM | SF-539 > 100 µM | UACC-62 > 100 µM | SK-OV-3 > 100 µM | HL-60 > 100 µM

Cc1cc(C)cc(NC(=O)CCC(=O)C2CCC/C2=N\NC(=O)C(=O)NN)c1 (stereo unspecified)
inactive: K562 > 100 µM | TK-10 > 100 µM | CAKI-1 > 100 µM | UO-31 > 100 µM | UACC-257 > 100 µM | A498 > 100 µM | MOLT-4 > 100 µM | LOX IMVI > 100 µM | U-251 > 100 µM | A549 > 100 µM | OVCAR-8 > 100 µM | CCRF-CEM > 100 µM | IGROV-1 > 100 µM | SF-539 > 100 µM | UACC-62 > 100 µM | SK-OV-3 > 100 µM | HL-60 > 100 µM

Cc1ccc(S(=O)(=O)N(/N=C(\N)Oc2ccc(Cl)cc2)C(=N)Oc2ccc(Cl)cc2)cc1
inactive: K562 > 100 µM | TK-10 > 100 µM | CAKI-1 > 100 µM | UO-31 > 100 µM | UACC-257 > 100 µM | A498 > 100 µM | MOLT-4 > 100 µM | LOX IMVI > 100 µM | U-251 > 100 µM | A549 > 100 µM | OVCAR-8 > 100 µM | CCRF-CEM > 100 µM | IGROV-1 > 100 µM | SF-539 > 100 µM | UACC-62 > 100 µM | SK-OV-3 > 100 µM | HL-60 > 100 µM

c1cc(N(CCn2cccn2)CCn2cccn2)cc(N(CCn2cccn2)CCn2cccn2)c1
inactive: K562 > 100 µM | TK-10 > 100 µM | CAKI-1 > 100 µM | UO-31 > 100 µM | UACC-257 > 100 µM | A498 > 100 µM | MOLT-4 > 100 µM | LOX IMVI > 100 µM | U-251 > 100 µM | A549 > 100 µM | OVCAR-8 > 100 µM | CCRF-CEM > 100 µM | UACC-62 > 100 µM | SK-OV-3 > 100 µM | HL-60 > 100 µM

O=C1NC(=S)NC(=O)C1=Cc1ccc([N+](=O)[O-])o1
inactive: K562 23.9 µM | TK-10 61 µM | CAKI-1 19.5 µM | UO-31 39.2 µM | UACC-257 44.2 µM | A498 > 100 µM | MOLT-4 19.7 µM | LOX IMVI 17.6 µM | U-251 > 100 µM | A549 > 100 µM | OVCAR-8 29.4 µM | CCRF-CEM 23.9 µM | IGROV-1 21.6 µM | SF-539 22.9 µM | UACC-62 19.4 µM | SK-OV-3 > 100 µM | HL-60 27.1 µM

O=[N+]([O-])c1ccc(/C=C/c2csnn2)cc1
inactive: K562 > 100 µM | TK-10 > 100 µM | CAKI-1 > 100 µM | UO-31 > 100 µM | UACC-257 > 100 µM | MOLT-4 > 100 µM | LOX IMVI > 100 µM | U-251 > 100 µM | A549 > 100 µM | OVCAR-8 > 100 µM | CCRF-CEM > 100 µM | IGROV-1 > 100 µM | SF-539 > 100 µM | UACC-62 > 100 µM | SK-OV-3 > 100 µM | HL-60 > 100 µM

CC1(C)CC(N2CCN(C3CC(C)(C)NC(C)(C)C3)CC2)CC(C)(C)N1
inactive: K562 > 100 µM | TK-10 > 100 µM | CAKI-1 > 100 µM | UO-31 > 100 µM | UACC-257 > 100 µM | A498 > 100 µM | MOLT-4 > 100 µM | LOX IMVI > 100 µM | U-251 > 100 µM | A549 > 100 µM | OVCAR-8 > 100 µM | CCRF-CEM > 100 µM | IGROV-1 > 100 µM | SF-539 > 100 µM | UACC-62 > 100 µM | SK-OV-3 > 100 µM | HL-60 > 100 µM

O=C(/C=C/c1ccc(Cl)c(Cl)c1)c1ccccc1Cl
inactive: K562 7.16 µM | TK-10 21.6 µM | CAKI-1 9.89 µM | UO-31 14.5 µM | UACC-257 14.3 µM | A498 17 µM | MOLT-4 27.7 µM | LOX IMVI 13.2 µM | U-251 5.64 µM | A549 15.8 µM | OVCAR-8 6 µM | CCRF-CEM 6.67 µM | IGROV-1 9.84 µM | SF-539 3.63 µM | UACC-62 12.8 µM | SK-OV-3 24.4 µM | HL-60 6.61 µM

COc1cc2c3cc1Oc1c(OC)c(OC)cc4c1[C@@H](Cc1ccc(O)c(c1)Oc1ccc(cc1)C[C@@H]3N(C)CC2)N(C)CC4.c1ccccc1
inactive: K562 8.69 µM | TK-10 17.8 µM | CAKI-1 1.79 µM | UO-31 15.7 µM | UACC-257 3.36 µM | A498 20.3 µM | MOLT-4 10.9 µM | LOX IMVI 17.1 µM | U-251 10.1 µM | A549 22.5 µM | OVCAR-8 16.8 µM | CCRF-CEM 17.5 µM | IGROV-1 20 µM | SF-539 3.71 µM | UACC-62 16 µM | HL-60 10.2 µM

C/C(=C\Cc1cc(O)ccc1O)CCc1c(C)cc(O)c(C=O)c1C [PANICEIN B3]
inactive: K562 > 100 µM | TK-10 34.8 µM | CAKI-1 22.4 µM | UO-31 23.5 µM | A498 40.3 µM | MOLT-4 > 100 µM | U-251 19.5 µM | A549 27.4 µM | OVCAR-8 17.1 µM | IGROV-1 23.2 µM | SF-539 18.5 µM | SK-OV-3 32.7 µM | HL-60 34.6 µM
